This passage reports Kd results from ChEMBL document CHEMBL1126442 (Bioorg Med Chem Lett, 1992).

The term pKd denotes −log10 of the Kd, conventionally taken in molar units. Read a low pKd as a large Kd.

pKd: −log10 of the molar value.

In assay [1] the target is T1, Muscarinic acetylcholine receptor M2 (Rattus norvegicus, UniProt P10980).
T1 sequence (P10980 whole entry): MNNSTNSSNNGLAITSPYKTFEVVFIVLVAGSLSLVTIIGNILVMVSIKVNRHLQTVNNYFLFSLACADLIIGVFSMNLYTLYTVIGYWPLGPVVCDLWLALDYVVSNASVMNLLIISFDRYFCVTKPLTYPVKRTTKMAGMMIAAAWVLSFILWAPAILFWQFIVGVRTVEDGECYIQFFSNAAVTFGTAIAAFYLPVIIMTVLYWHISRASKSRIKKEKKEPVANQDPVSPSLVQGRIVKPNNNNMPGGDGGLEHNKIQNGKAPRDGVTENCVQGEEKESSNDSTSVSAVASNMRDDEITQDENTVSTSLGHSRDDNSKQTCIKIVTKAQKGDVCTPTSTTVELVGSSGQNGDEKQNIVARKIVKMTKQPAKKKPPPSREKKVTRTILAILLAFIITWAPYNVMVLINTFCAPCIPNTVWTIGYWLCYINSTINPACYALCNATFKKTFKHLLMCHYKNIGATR
The assay is described as follows: Dissociation constant for the blocking of brainstem muscarinic M2 receptor was reported. In kind it is tissue-based.

Assay [2] addresses T2, Muscarinic acetylcholine receptor M1 (Homo sapiens, UniProt P11229).
T2 sequence (P11229 whole entry): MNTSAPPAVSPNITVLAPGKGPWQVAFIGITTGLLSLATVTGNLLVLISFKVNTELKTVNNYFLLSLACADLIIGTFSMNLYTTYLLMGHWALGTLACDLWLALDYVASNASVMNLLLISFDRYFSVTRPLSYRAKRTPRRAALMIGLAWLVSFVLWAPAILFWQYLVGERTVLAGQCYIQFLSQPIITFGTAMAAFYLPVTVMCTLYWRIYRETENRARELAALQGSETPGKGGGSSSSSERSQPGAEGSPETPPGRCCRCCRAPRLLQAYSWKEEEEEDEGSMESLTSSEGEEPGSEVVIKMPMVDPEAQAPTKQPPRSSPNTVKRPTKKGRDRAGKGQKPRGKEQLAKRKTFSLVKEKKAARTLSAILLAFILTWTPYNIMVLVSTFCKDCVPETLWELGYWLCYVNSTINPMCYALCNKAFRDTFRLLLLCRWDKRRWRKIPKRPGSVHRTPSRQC
The assay is described as follows: Dissociation constant for human Muscarinic acetylcholine receptor M1 was determined.

The target in assay [3] is T3, Muscarinic acetylcholine receptor M2 (Homo sapiens, UniProt P08172).
T3 sequence (P08172 whole entry): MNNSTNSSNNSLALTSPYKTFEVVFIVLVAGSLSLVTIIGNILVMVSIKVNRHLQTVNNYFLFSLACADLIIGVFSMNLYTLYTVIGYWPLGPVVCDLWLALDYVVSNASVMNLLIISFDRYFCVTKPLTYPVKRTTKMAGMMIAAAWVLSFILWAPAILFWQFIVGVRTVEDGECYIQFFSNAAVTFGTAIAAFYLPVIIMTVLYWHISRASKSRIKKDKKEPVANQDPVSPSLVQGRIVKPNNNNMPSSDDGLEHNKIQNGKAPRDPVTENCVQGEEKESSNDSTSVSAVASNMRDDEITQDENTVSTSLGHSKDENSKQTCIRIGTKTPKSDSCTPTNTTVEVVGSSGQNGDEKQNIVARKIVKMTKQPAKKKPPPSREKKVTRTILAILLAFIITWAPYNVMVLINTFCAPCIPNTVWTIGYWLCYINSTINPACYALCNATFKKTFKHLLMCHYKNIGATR
Kind of assay: Dissociation constant for human Muscarinic acetylcholine receptor M2 was determined.

Assay [4] deals with T4, Muscarinic acetylcholine receptor M4 (Rattus norvegicus, UniProt P08485).
T4 sequence (P08485 whole entry): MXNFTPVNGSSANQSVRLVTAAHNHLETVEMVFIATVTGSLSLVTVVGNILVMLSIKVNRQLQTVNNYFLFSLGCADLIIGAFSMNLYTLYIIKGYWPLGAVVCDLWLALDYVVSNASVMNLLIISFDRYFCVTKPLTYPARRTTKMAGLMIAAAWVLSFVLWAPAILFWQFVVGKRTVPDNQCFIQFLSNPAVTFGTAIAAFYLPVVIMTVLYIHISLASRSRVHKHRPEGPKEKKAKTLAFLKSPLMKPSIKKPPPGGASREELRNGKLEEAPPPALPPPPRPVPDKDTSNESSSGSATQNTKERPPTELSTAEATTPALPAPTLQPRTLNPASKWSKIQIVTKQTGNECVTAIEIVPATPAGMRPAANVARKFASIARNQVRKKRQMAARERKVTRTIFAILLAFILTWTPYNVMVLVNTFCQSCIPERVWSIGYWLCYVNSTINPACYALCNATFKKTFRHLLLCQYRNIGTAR
Kind of assay: Potency assessed to inhibit cAMP levels in rat striatum, for blocking oxotremorine-M, in functional assay for Muscarinic acetylcholine receptor M4. Type of assay: tissue-based. For orientation: cAMP levels reflect the balance of adenylyl cyclase and phosphodiesterase activity.

The next assay is filed under the species Rattus norvegicus. Kind of assay: Ability to reverse oxotremorine-M mediated inhibition of evoked acetylcholine release from hippocampal tissue. Type of assay: functional, Hippocampus.
In assay [5] the target is T5, Muscarinic acetylcholine receptor M4 (Mus musculus, UniProt P32211).
T5 sequence (P32211 whole entry): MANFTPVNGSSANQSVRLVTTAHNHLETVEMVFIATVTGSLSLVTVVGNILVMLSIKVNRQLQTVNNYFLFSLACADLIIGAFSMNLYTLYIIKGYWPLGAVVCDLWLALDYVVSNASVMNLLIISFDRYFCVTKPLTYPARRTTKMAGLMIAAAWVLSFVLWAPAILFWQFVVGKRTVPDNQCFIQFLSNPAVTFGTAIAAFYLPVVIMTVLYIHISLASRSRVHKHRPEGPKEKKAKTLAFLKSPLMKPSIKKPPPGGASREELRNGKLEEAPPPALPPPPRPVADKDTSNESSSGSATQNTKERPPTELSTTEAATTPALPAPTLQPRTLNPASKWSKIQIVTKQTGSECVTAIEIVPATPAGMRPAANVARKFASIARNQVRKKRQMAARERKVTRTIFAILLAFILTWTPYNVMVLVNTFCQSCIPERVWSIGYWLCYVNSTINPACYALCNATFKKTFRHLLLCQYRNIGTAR
Kind of assay: Potency assessed to inhibit cAMP levels in N1E-115 neuroblastoma cells, for blocking oxotremorine-M in functional assay for Muscarinic acetylcholine receptor M4. Type of assay: cell-based.

Assay [6] has as its target T1, Muscarinic acetylcholine receptor M2. The assay is described as follows: Dissociation constant for the blocking of cardiac muscarinic M2 receptor was reported. The arrangement: species or system Heart.
The target is the same in assay [7]. The assay is described as follows: Dissociation constant for the blocking of heart muscarinic M2 receptor was reported.

Take `C[C@@H]1OC(=O)C[C@H]1C/C=C/[C@H]1CCCCN1C`: the pKd in assay [1] was 5.92; in assay [2], 5.01; in assay [3], 5.36.

Take `C[C@@H]1OC(=O)[C@H]2C[C@H]3CCCC[C@@H]3[C@@H](/C=C/[C@H]3CCC[C@H](C)N3C)[C@@H]12` [HIMBACINE]: the pKd in assay [1] was 8.34; in assay [4], 8.27; in the assay filed under Rattus norvegicus, 8.07; in assay [5], 7.95; in assay [6], 8.52; in assay [7], 8.16.
